Laboratory results: patent US10889553B2, “Asymmetric triazole benzamide derivatives and the compositions and methods of treatment regarding the same” (NysnoBio Ireland DAC, priority 2017, dated 2021)
Read-outs that look alike come from different tables or passages of the source.

How the values were obtained:
A549 (lung) = assay: Cancer cell proliferation assay (acid phosphatase); format: cell-based; settings: Table 6A, 72 hrs, read-out: A549 IC50
Method: (§1) Measurement of the inhibitive effect of compounds on cancer cell proliferation was performed. Various cell lines were tested, including HCT-116 (colon); A549 (lung); TOV-21G (ovarian); Calu-6 (lung); and LS-174T (colon); and cell lines H1703 (Lung) and SKOV3 (ovarian); JEKO-1 (lymophoma); TOV-112D (ovarian) are tested. The assays were performed under the following conditions: Cells are harvested at a concentration of 4×10^4 cells/ml in media. Volumes of 100 μl/well of these cell suspensions were added to a 96 well plate using a multichannel pipette. Plates were gently agitated to ensure an even dispersion of cells over a given plate. Cells were then incubated at 37° C., 5% CO2 overnight. Following this, 100 μl of compound at varying concentrations was added to wells in triplicate. Control wells are those with 100 μl media containing 0.33% DMSO added to cell suspension (this is the equivalent volume of DMSO found in the highest concentration of drug). Plates were then gently agitated, as above, and incubated at 37° C., 5% CO2 for 72 hrs (control wells have reached 80-90% confluency). Assessment of cell proliferation in the presence of the compound was determined by the acid phosphatase assay.
(§2) Following the incubation period of 72 hrs, media was removed from the plates. Each well on the plate was washed twice with 100 μl PBS. This was then removed and 100 μl of freshly prepared phosphatase substrate (10 mM p-nitrophenol phosphate in 0.1M sodium acetate, 0.1% triton X-100, pH 5.5) was added to each well. The plates were then incubated in the dark at 37° C. for 2 hours. Colour development was monitored during this time. The enzymatic reaction was stopped by the addition of 50 μl of 1N NaOH. The plate was read in a dual beam plate reader at 405 nm with a reference wavelength of 620 nm. The absorbance reading of the latter is subtracted from the former, and the effect of the drug on cell proliferation was then measured as a percentage against the control cells (DMSO), which is taken as 0% inhibition.

TOV-21G (ovarian) = assay: Cancer cell proliferation assay (acid phosphatase); format: cell-based; settings: Table 6A, 72 hrs, read-out: TOV-21G IC50
Method: as §1, §2

HCT-116 (colon) = assay: Cancer cell proliferation assay (acid phosphatase); format: cell-based; settings: Table 6A, 72 hrs, read-out: HCT-116 IC50
Method: as §1, §2

Parkin ligase = target: T1, Parkin ligase (Homo sapiens, UniProt O60260); assay: Activity-Based Probe Assay using Ubiquitin vinyl sulfone probe (TR-FRET); format: biochemical; settings: heat activated Parkin, HA-Ub-VS probe, activation EC50; read-out: Probe Assay EC50 (μM) [Example 2]
T1 sequence (O60260 1-465): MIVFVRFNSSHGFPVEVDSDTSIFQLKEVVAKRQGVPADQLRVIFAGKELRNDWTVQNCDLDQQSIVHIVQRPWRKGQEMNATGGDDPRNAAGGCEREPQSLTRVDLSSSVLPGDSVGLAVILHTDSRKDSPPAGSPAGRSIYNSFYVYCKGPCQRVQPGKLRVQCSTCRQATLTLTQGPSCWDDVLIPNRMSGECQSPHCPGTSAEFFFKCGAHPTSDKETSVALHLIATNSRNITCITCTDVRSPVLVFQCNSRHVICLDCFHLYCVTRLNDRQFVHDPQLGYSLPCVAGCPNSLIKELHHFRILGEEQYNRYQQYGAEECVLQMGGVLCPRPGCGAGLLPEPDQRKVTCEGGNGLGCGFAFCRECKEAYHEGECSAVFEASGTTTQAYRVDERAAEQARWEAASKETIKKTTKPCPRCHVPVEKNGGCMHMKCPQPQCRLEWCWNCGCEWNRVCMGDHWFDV
Procedure, shortened: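 Heat-activated His-Parkin (5 min, 58 °C; 40 nM) was preincubated 15 min with compound, then reacted 60 min at 22 °C with 70 nM HA-Ub-VS in 50 mM HEPES pH 8.5, 150 mM NaCl, 0.01% Tween 20, 0.1% BSA. Probe labelling was read by anti-His-Eu/anti-HA-XL665 TR-FRET (665/615 ratio). % activation was normalized to DMSO and 100 nM control activator, then fitted with a four-parameter curve (Bottom=0, Top=100).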

LS-174T (colon) = assay: Cancer cell proliferation assay (acid phosphatase); format: cell-based; settings: Homo sapiens, LS174T; Table 6A; 72 hrs
Method: as §1, §2

[1] = Microsomal stability assay, human liver microsomes; format: in vitro ADME; settings: pH 7.4; human liver microsomes 1.0 mg/mL, 1 μM compound, NADPH; read-out: HLM t1/2
Method: (§3) Compounds were also tested for metabolic stability in both rat liver microsomes (RLM) and the compounds are tested for human liver microsomes (HLM) and their half-life is calculated (See Tables 5A and 5B). The assay was performed as follows. The total volume for each incubation was 250 μL. A 100 μM DMSO solution of compound (diluted from 10 mM stock solution) was spiked into 50 mM KH2PO4 (pH 7.4) buffer containing liver microsome at a concentration of 1.0 mg/mL. The reaction was initiated by the addition of 50 μL of 1 mM NADPH. The final concentration of each compound was 1 μM (1% DMSO). The positive controls, phenacetin for CYP1A2, diclofenac for CYP2C9, omeprazole for CYP2C19, dextromethorphan for CYP2D6 and midazolam for CYP3A4 were added to a separate tube with the final substrate concentrations of 1 μM (1% DMSO) for evaluating the enzyme activities in the liver microsomes. At 0, 15, 30 and 60 min, an aliquot of 15 μL reaction mixtures were removed and 200 μL of methanol (with internal standard of 25 ng/mL propranolol) was added to quench the reaction. The resulting mixture was centrifuged and supernatant was used for LC-MS/MS analysis.
(§4) The signals for each compound, or the metabolites for the probe substrates and the internal standard were integrated and the peak area ratios to internal standard were generated. Percent parent remaining at a specified timepoint was calculated based on the peak area ratios at time 0 (as 100%) for in vitro metabolic stability studies in liver microsome and hepatocyte. The observed rate constant (kobs) for the metabolism of substrates was calculated by plotting the natural log of percentage substrate remaining versus time of incubation with the slope being kobs. The half-life (T1/2) was calculated according to the following equation: T1/2=[…]

[2] = Microsomal stability assay, rat liver microsomes; format: in vitro ADME; settings: pH 7.4; rat liver microsomes 1.0 mg/mL, 1 μM compound, NADPH; read-out: RLM t1/2
Method: as §3, §4

TOV-112D (ovarian) = assay: Cancer cell proliferation assay (acid phosphatase); format: cell-based; settings: Homo sapiens, TOV112D; Table 6B; 72 hrs; read-out: TOV-112D IC50
Method: as §1, §2

JEKO-1 (lymophoma) = assay: Cancer cell proliferation assay (acid phosphatase); format: cell-based; settings: Homo sapiens, Table 6B, 72 hrs, read-out: JEKO-1 IC50
Method: as §1, §2

| SMILES | IC50 (A549 (lung); Homo sapiens, A549, 72 h) | IC50 (HCT-116 (colon); Homo sapiens, HCT-116, 72 h) | EC50 (Parkin ligase) | IC50 (TOV-21G (ovarian); Homo sapiens, TOV21G, 72 h) | further results |
| --- | --- | --- | --- | --- | --- |
| Cc1ccccc1C(=O)Nc1nc(NC(=O)c2ccccc2C)n(-c2ccc(N3CCN(C(=O)OC(C)(C)C)CC3)cc2)n1 [Compound 59] | 810000 nM | 801000 nM | 3 µM |  | IC50 (TOV-21G (ovarian); Homo sapiens, TOV21G, 72 h, heading: TOV-21G IC50): 938 nM |
| Cc1ccccc1C(=O)Nc1nc(NC(=O)c2ccno2)n(-c2ccc(OC(F)(F)F)cc2)n1 [Compound 71] | 2400 nM | 2500 nM | 3 µM |  |  |
| Cc1ccccc1C(=O)Nc1nc(NC(=O)c2ccno2)n(-c2cccc(F)c2)n1 [Compound 73] | 2500 nM | 2500 nM | 12 µM |  |  |
| Cc1ccccc1C(=O)Nc1nc(NC(=O)c2ccno2)n(-c2ccc(C(F)(F)F)cc2)n1 [Compound 75] | 2500 nM | 2400 nM | 4 µM |  | IC50 (LS-174T (colon)): 1000 nM |
| Cc1ccccc1C(=O)Nc1nc(NCc2ccccc2)nn1-c1ccc(Cl)cc1 [Compound 108] | > 2500 nM | > 2500 nM | 1.5 µM | > 2500 nM |  |
| Cc1ccccc1C(=O)Nc1nc(NCc2ccccc2Cl)nn1-c1ccc(OC(F)(F)F)cc1 [Compound 116] | > 2500 nM | > 2500 nM | 2 µM | > 2500 nM |  |
| Cc1ccccc1C(=O)Nc1nc(-c2cccc(F)n2)nn1-c1cccc(F)c1 [Compound 128] | 2500 nM | 2500 nM | 5 µM | 2400 nM |  |
| Cc1ccccc1C(=O)Nc1nc(-c2cccc(F)n2)nn1-c1ccc(OC(F)(F)F)cc1 [Compound 129] | 2500 nM | 2400 nM | 3 µM | 2000 nM |  |
| Cc1ccccc1C(=O)Nc1nc(-c2cccc(F)n2)nn1-c1cccc(F)c1 [Compound 132] |  |  | 3 µM |  | IC50 (A549 (lung)): 2400 nM; IC50 (TOV-21G (ovarian)): 1900 nM; IC50 (HCT-116 (colon)): 2200 nM |
| Cc1ccccc1C(=O)Nc1nc(-c2cccc(F)n2)nn1-c1ccc(Cl)cc1 [Compound 134] | 2600 nM | 2300 nM | 4 µM | 1800 nM |  |
| COc1ccccc1-c1nc(NC(=O)c2ccccc2C)n(-c2ccc(OC(F)(F)F)cc2)n1 [Compound 154] |  | > 2500 nM |  |  | half-life at 1 μM [1]: 2.22 h; half-life at 1 μM [2]: 1.7 h |

Continued, in another order:

| IC50 (A549 (lung); Homo sapiens, A549, 72 h) | IC50 (HCT-116 (colon); Homo sapiens, HCT-116, 72 h) | EC50 (Parkin ligase) | IC50 (TOV-21G (ovarian); Homo sapiens, TOV21G, 72 h) | SMILES | further results |
| --- | --- | --- | --- | --- | --- |
| 2400 nM | 2300 nM | 8 µM | 2400 nM | Cc1ccccc1C(=O)Nc1nc(NC(=O)c2ccccc2C)n(-c2ccc(N3CCC3)cc2)n1 [Compound 64] | IC50 (LS-174T (colon)): 2600 nM |
| 1400 nM | 1700 nM | 2 µM | 1900 nM | Cc1cccc(-c2nc(NC(=O)c3ccccc3C)n(-c3ccc(OC(F)(F)F)cc3)n2)n1 [Compound 126] | IC50 (LS-174T (colon)): 1000 nM |
| 1100 nM | 1700 nM | 2 µM | 2100 nM | Cc1cccc(-c2nc(NC(=O)c3ccccc3C)n(-c3ccc(Cl)cc3)n2)n1 [Compound 127] | IC50 (LS-174T (colon)): 1600 nM |
| 2300 nM | 2300 nM | 2 µM | 2200 nM | Cc1ccccc1C(=O)Nc1nc(-c2cccc(F)n2)nn1-c1ccc(C(F)(F)F)cc1 [Compound 131] |  |
| 2500 nM | 2300 nM | 1 µM | 1800 nM | Cc1cccc(-c2nc(NC(=O)c3ccccc3C)n(-c3ccc(C(F)(F)F)cc3)n2)n1 [Compound 133] |  |
| 300 nM | 400 nM | 1 µM | 500 nM | Cc1ccccc1C(=O)Nc1nc(-c2ncccc2C)nn1-c1cccc(F)c1 [Compound 146] |  |
|  | 240 nM |  |  | Cc1ccccc1C(=O)Nc1nc(-c2ccccc2O)nn1-c1ccc(Cl)cc1 [Compound 155] | half-life at 1 μM [1]: 1.06 h; IC50 (TOV-112D (ovarian)): 40 nM; IC50 (JEKO-1 (lymophoma)): 40 nM; half-life at 1 μM [2]: 0.29 h |
|  | 240 nM |  |  | Cc1ccccc1C(=O)Nc1nc(-c2ccccc2O)nn1-c1ccc(C(F)(F)F)cc1 [Compound 156] | half-life at 1 μM [1]: 2.63 h; IC50 (TOV-112D (ovarian)): 40 nM; IC50 (JEKO-1 (lymophoma)): 80 nM; half-life at 1 μM [2]: 0.395 h |
|  | 350 nM |  |  | Cc1ccccc1C(=O)Nc1nc(-c2ccccc2O)nn1-c1cccc(F)c1 [Compound 157] | half-life at 1 μM [1]: 0.7 h; IC50 (TOV-112D (ovarian)): 120 nM; IC50 (JEKO-1 (lymophoma)): 80 nM; half-life at 1 μM [2]: 0.275 h |
|  | 240 nM |  |  | Cc1ccccc1C(=O)Nc1nc(-c2cc(Cl)ccc2O)nn1-c1ccc(OC(F)(F)F)cc1 [Compound 158] | half-life at 1 μM [1]: 2.75 h; IC50 (TOV-112D (ovarian)): 190 nM; IC50 (JEKO-1 (lymophoma)): 200 nM; half-life at 1 μM [2]: 2.82 h |
|  | 300 nM |  |  | Cc1ccc(O)c(-c2nc(NC(=O)c3ccccc3C)n(-c3ccc(OC(F)(F)F)cc3)n2)c1 [Compound 159] | half-life at 1 μM [1]: 2.97 h; IC50 (TOV-112D (ovarian)): 60 nM; IC50 (JEKO-1 (lymophoma)): 90 nM; half-life at 1 μM [2]: 2.63 h |
| 2300 nM | 2000 nM |  | 2300 nM | Cc1cccc(C(=O)Nc2nc(NC(=O)c3cccc(C)c3)n(-c3ccccc3)n2)c1 [Compound F3] |  |
